{"source": "paper PMC11056026", "about": "“The Evaluation of Teleost-Derived Antimicrobial Peptides Against Neisseria gonorrhoeae” (Cureus, 2024)", "key": {"[1]": {"tested_on": "Neisseria gonorrhoeae MS11 strain", "test": "Antibiotic susceptibility testing, disk diffusion (CLSI)", "format": "cell-based", "design": "key: R, resistant; I, intermediate; S, susceptible", "conditions": "CLSI criteria, 24 h, 37°C, 5% CO2", "protocol": "(§1) Briefly, the overnight colonies (16-20 hours) were suspended and diluted in GCP broth to a concentration of optical density (OD) = 0.1 at 650 nm. The bacterial suspension was then plated onto GC agar plates using swabs, and the disks were placed on the bacterial lawn with sterile tweezers. The plates were incubated at 37°C with 5% CO2 for 24 hours. The diameter of the inhibition zone was measured to determine the susceptibility according to the criteria recommended by the CLSI standard."}, "[2]": {"tested_on": "WHO gonococcal reference strain Z (WHO Z)", "test": "Antibiotic susceptibility testing, disk diffusion (CLSI)", "format": "cell-based, Neisseria gonorrhoeae", "design": "key: R, resistant; I, intermediate; S, susceptible", "conditions": "CLSI criteria, 24 h, 37°C, 5% CO2", "protocol": "as §1"}, "[3]": {"tested_on": "Neisseria gonorrhoeae MS11", "test": "Transmission electron microscopy of treated GC", "format": "cell-based", "conditions": "AMP 10 μg/mL or azithromycin 0.5 μg/mL, four hours", "description": "The bars represented the means of each group with standard deviations."}, "[4]": {"tested_on": "Neisseria gonorrhoeae MS11 adherence to ME180 endocervical epithelial cells", "test": "Adherence assay of GC to ME180 cells", "format": "cell-based", "conditions": "MS11 on ME180 cells, azithromycin 0.5 μg/mL, three hours", "protocol": "Cells were then lysed with 1% saponin in sterile phosphate-buffered saline (PBS) and spread onto the GCK agar plate. The number of adherent GC was counted to determine the effect of AMP.\nNon-treated GC was served as control (Ct).\nTo assess the effects of AMP on adherence, MS11 was inoculated onto ME180 cells in the presence or absence of AMP for three hours. The cells were then collected and plated on GCK agar. Adherent GC were determined by colony counts. Azithromycin was used as a control for comparison."}, "[5]": {"tested_on": "Neisseria gonorrhoeae MS11 strain", "conditions": "24 h", "protocol": "(§2) The synthetic AMP (Table 1) were purchased (Mission Bio, Taipei, Taiwan), and the inhibition activity test against GC was adapted from Bergman et al.. Briefly, GC were suspended in GCP broth to a concentration of 105 colony-forming units (CFU)/mL, and 180 μL of this suspension was added to each well of a 96-well plate with 20 μL peptide solution at various concentrations. The final concentration of AMP in each well ranged from 0.08 to 20 μg/mL. The samples were incubated at 37°C with 5% CO2 for 24 hours. After the incubation, 10 μL of the suspension from each well was spotted on GCK agar plates."}, "[6]": {"tested_on": "WHO gonococcal reference strain Z (WHO Z)", "conditions": "GCP broth, 10^5 CFU/mL, 24 h, 37°C, 5% CO2, lowest concentration reducing >=90% of bacteria vs non-AMP control, means of three independent experiments", "protocol": "as §2"}, "Vibrio spp.": {"tested_on": "Vibrio spp.", "conditions": "100 μg/mL or above; cited from earlier work", "description": "(§3) [26], indicating the low efficacy of TH1-5. Piscidins were reported widely as the broadest teleost-derived AMP against several gram-positive and gram-negative species."}, "Listeria monocytogenes": {"tested_on": "Listeria monocytogenes", "conditions": "cited from earlier work", "description": "as §3"}, "[7]": {"tested_on": "ME180 endocervical epithelial cells", "conditions": "24 hours; for Cell survival of ME180 cells vs non-treatment control (CCK-8): 10 μg/mL AMP, three independent experiments", "protocol": "ME180 cells were seeded into 96-well microtiter plates at a 5 × 10^3 cells/well density and incubated for 24 hours. A final concentration of 10 μg/mL of AMP and 0.1% of positive control Triton-X were added to the well and incubated for 24 hours. Next, the Cell Counting Kit-8 (CCK-8) solution (Tools Biotech Inc., New Taipei City, Taiwan) was added and incubated for one hour. The absorbance at 450 nm was measured in each well, and the cytotoxicity level was analyzed according to the manufacturer's instructions.\nGC colonization and infection only start after the GC's adherence to epithelial cells in the reproductive tract. Thus, adherence plays a crucial role in the initial colonization of GC on mucosal surfaces. […] Since these AMP may also affect epithelial cell viability, examining the effects of three AMP on both epithelial cells, and GC adherence is needed. To examine the effects of AMP on epithelial cells, ME180 cells were incubated with or without 10 μg/mL AMP for 24 hours, and the CCK-8 cell viability assay was conducted. Triton-X, a membrane-disrupting agent at a final concentration of […], was administered as a positive control.\nME180 cells were grown on a 96-well plate, and 10 μg/mL of designated AMP was added with or without inoculating MS11. (A) To measure cell cytotoxicity, cells with or without AMP or 0.1% Triton-X were incubated for 24 hours, and CCK-8 assay was performed to determine the cell survival rate. (B) To evaluate GC adherence, cells with MS11 were incubated for three hours to determine the adherent GC. GC treated with 0.5 μg/mL of azithromycin (AZI) served as a positive control. Non-treated GC was served as control (Ct). The bars represented the means of each group with standard deviations. Statistical significance was determined using a one-way ANOVA followed by post hoc Dunnett's test."}, "HeLa cells": {"tested_on": "HeLa cells", "conditions": "cited from earlier work"}, "HT1080 cells": {"tested_on": "HT1080 cells", "conditions": "HT1080, 15 μg/mL or more; cited from earlier work"}}, "note": "Where two headings read alike, the source gives them in different places. Residues, ends and D or L forms follow the SMILES beside them. No end group written: not given here."}
{"molecule": "CC[C@H]1OC(=O)[C@H](C)[C@@H](O[C@H]2C[C@@](C)(OC)[C@@H](O)[C@H](C)O2)[C@H](C)[C@@H](O[C@@H]2O[C@H](C)C[C@H](N(C)C)[C@H]2O)[C@](C)(O)C[C@@H](C)CN(C)[C@H](C)[C@@H](O)[C@]1(C)O", "note": "[Azithromycin]", "values": [{"measurement": "Antibiotic susceptibility", "setting": "[1]", "value": "S"}, {"measurement": "Antibiotic susceptibility", "setting": "[2]", "value": "R"}, {"measurement": "Morphological and structural changes of GC (TEM)", "setting": "[3]", "value": "intact membranes"}, {"measurement": "Reduction of adherent GC compared to the AMP-treated group", "setting": "[4]", "value": "significantly higher reduction"}]}
{"molecule": "CO/N=C(\\C(=O)N[C@@H]1C(=O)N2C(C(=O)O)=C(CSc3nc(=O)c(=O)[nH]n3C)CS[C@H]12)c1csc(N)n1", "note": "[Ceftriaxone]", "values": [{"measurement": "Antibiotic susceptibility", "setting": "[1]", "value": "S"}, {"measurement": "Antibiotic susceptibility", "setting": "[2]", "value": "I"}]}
{"molecule": "CC[C@H](C)[C@H](NC(=O)CNC(=O)[C@@H]1CCCN1C(=O)[C@@H](NC(=O)[C@H](CS)NC(=O)[C@H](CS)NC(=O)CNC(=O)[C@H](CS)NC(=O)[C@H](CS)NC(=O)[C@H](Cc1ccccc1)NC(=O)[C@H](CCCNC(=N)N)NC(=O)[C@H](CS)NC(=O)[C@H](CCCCN)NC(=O)[C@@H](NC(=O)CN)[C@@H](C)CC)[C@@H](C)O)C(=O)N[C@@H](CS)C(=O)NCC(=O)N[C@H](C(=O)N[C@@H](CS)C(=O)N[C@@H](CS)C(=O)N[C@@H](CCCNC(=N)N)C(=O)N[C@@H](Cc1ccccc1)C(=O)O)C(C)C", "note": "[TH1-5] (H-GIKCRFCCGCCTPGICGVCCRF-OH; N-terminus and C-terminus assumed)", "values": [{"measurement": "MIC of AMP", "setting": "[5]; MS11 strain, GCP broth, 10^5 CFU/mL, 37°C, 5% CO2, lowest concentration reducing >=90% of bacteria vs non-AMP control, means of three independent experiments", "value": ">10", "unit": "µg/mL"}, {"measurement": "MIC of AMP", "setting": "[6]", "value": ">20", "unit": "µg/mL"}, {"measurement": "Antibacterial activity", "setting": "Vibrio spp.", "value": "not"}, {"measurement": "Concentration exhibiting antibacterial activity", "setting": "Listeria monocytogenes", "value": "≥ 100", "unit": "µg/mL"}]}
{"molecule": "CC(C)(C)CC(C)(C)c1ccc(OCCO)cc1", "note": "[Triton-X, reference compound]", "values": [{"measurement": "Decrease in cell survival of ME180 cells (CCK-8)", "setting": "[7]; positive control, final concentration of 0.01% (0.1% elsewhere in the source)", "value": 88, "unit": "%"}]}
{"molecule": "FFHHIFRGIVHVGKTIHRLVTG [PIS] [listing 1 of 2 here]", "values": [{"measurement": "MIC of AMP", "setting": "[6]", "value": 10, "unit": "µg/mL"}]}
{"molecule": "FFHHIFRGIVHVGKTIHRLVTG [PIS] [listing 2 of 2 here]", "values": [{"measurement": "Cell survival of ME180 cells vs non-treatment control (CCK-8)", "setting": "[7]", "value": "No significant difference"}]}
{"molecule": "FIHHIIGGLFSAGKAIHRLIRRRRR [TP4] [listing 1 of 2 here]", "values": [{"measurement": "MIC of AMP", "setting": "[6]", "value": 10, "unit": "µg/mL"}]}
{"molecule": "FIHHIIGGLFSAGKAIHRLIRRRRR [TP4] [listing 2 of 2 here]", "values": [{"measurement": "Cell survival of ME180 cells vs non-treatment control (CCK-8)", "setting": "[7]", "value": "No significant difference"}]}
{"molecule": "FIHHIIGGLFSVGKHIHSLIHGH [TP3]", "values": [{"measurement": "MIC of AMP", "setting": "[5]", "value": ">10", "unit": "µg/mL"}, {"measurement": "MIC of AMP", "setting": "[6]", "value": ">20", "unit": "µg/mL"}]}
{"molecule": "Pardaxin", "values": [{"measurement": "Concentration inhibiting cells", "setting": "HeLa cells", "value": "≥ 15", "unit": "µg/mL"}, {"measurement": "Inhibition of cells", "setting": "HT1080 cells", "value": "not"}]}
